# Laboratory results: US5922709A, “Antifungal composition” (Banyu Pharmaceutical Co., Ltd., priority 1995, dated 1999)
# Assays:
# Type in all cases: cell-based
# [1] = tested on: Candida albicans IFO 1385; test: Minimum inhibitory concentration (agar dilution method) of miconazole in the presence or absence of BE-31405, Candida albicans IFO 1385; conditions: for MIC of miconazole: yeast morphology agar, 37° C., 2 days
# [2] = tested on: Candida albicans IFO 1270; test: Minimum inhibitory concentration (agar dilution method) of itraconazole in the presence and absence of BE-31405, Candida albicans IFO 1270; conditions: for MIC of intraconazole: 37° C., 2 days
# Method: (§1) Now, the minimum inhibitory concentrations (MIC, by an agar dilution method) of itraconazole against Candida albicans IFO 1270, IFO 1385 and ATCC90028 in the presence and absence of BE-31405, are shown in Tables 3, 4 and 5, respectively. As the agar medium for the measurement of MIC, a culture medium having 1% of glucose and 1.2% of agar added to a yeast nitrogen base, manufactured by Difico Co., was used, and after inoculation of the strain solution, culturing was carried out at 37° C. for 2 days, whereupon the concentration at which no growth of the strain was observed, was judged to be MIC.
# [3] = tested on: Candida albicans IFO 1385; test: Minimum inhibitory concentration (agar dilution method) of itraconazole in the presence and absence of BE-31405, Candida albicans IFO 1385; conditions: for MIC of intraconazole: 37° C., 2 days
# Method: as §1
# [4] = tested on: Candida albicans ATCC 90028; test: Minimum inhibitory concentration (agar dilution method) of itraconazole in the presence and absence of BE-31405, Candida albicans ATCC 90028; conditions: for MIC of intraconazole: 37° C., 2 days
# Method: as §1
# [5] = BE-31405 0.0 μg/ml (absence), yeast nitrogen base, 1% glucose, 1.2% agar
# [6] = itraconazole combined with BE-31405, IFO 1270 (Table 3)
# [7] = with BE-31405 0.025 μg/ml, yeast nitrogen base agar
# [8] = with BE-31405 0.1 μg/ml, yeast nitrogen base agar
# [9] = with BE-31405 0.39 μg/ml, yeast nitrogen base agar
# [10] = itraconazole combined with BE-31405, IFO 1385 (Table 4)
# [11] = with BE-31405 0.05 μg/ml, yeast nitrogen base agar
# [12] = itraconazole combined with BE-31405, ATCC 90028 (Table 5)
smiles,measurement,setting,value
CC(=O)OC1C2OC3(OCC45CC6C(C)CCC6C6(C=O)CC4C=C(C(C)C)C65C(=O)O)OC2OC1C3O (stereo not drawn) [BE-31405],MIC,"[1]; Candida albicans, IFO1385, 48 h, BE31405 alone under this test condition (Table 2)",1.56 µg/mL
same,MIC,"[2]; Candida albicans, IFO1270, 48 h, BE31405 alone under this test condition (Table 3)",0.78 µg/mL
same,MIC,"[3]; Candida albicans, IFO1385, 48 h, BE31405 alone under this test condition (Table 4)",1.56 µg/mL
same,MIC,"[4]; Candida albicans, ATCC90028, 48 h, BE31405 alone under this test condition (Table 5)",1.56 µg/mL
CCC(C)n1ncn(-c2ccc(N3CCN(c4ccc(OCC5COC(Cn6cncn6)(c6ccc(Cl)cc6Cl)O5)cc4)CC3)cc2)c1=O (stereo not drawn) [itraconazole],MIC of intraconazole,[2]; [5],> 100 µg/mL
same,effect of combined use,[2]; [6],strong synergistic effects
same,fractional inhibitory concentration index,[2]; [6],at most 0.2
same,antifungal activities of itraconazole in the presence of a low concentration of BE-31405,"[2]; low concentration of BE-31405, IFO 1270 (Table 3)",substantially enhanced
same,MIC of intraconazole,"[2]; with BE-31405 0.006 μg/ml, yeast nitrogen base agar",0.05 µg/mL
same,MIC of intraconazole,[2]; [7],0.013 µg/mL
same,MIC of intraconazole,[2]; [8],0.013 µg/mL
same,MIC of intraconazole,[2]; [9],0.013 µg/mL
same,MIC of intraconazole,[3]; [5],> 100 µg/mL
same,effect of combined use,[3]; [10],strong synergistic effects
same,fractional inhibitory concentration index,[3]; [10],at most 0.2
same,antifungal activities of itraconazole in the presence of a low concentration of BE-31405,"[3]; low concentration of BE-31405, IFO 1385 (Table 4)",substantially enhanced
same,MIC of intraconazole,[3]; [7],1.56 µg/mL
same,MIC of intraconazole,[3]; [11],0.2 µg/mL
same,MIC of intraconazole,[3]; [8],0.1 µg/mL
same,MIC of intraconazole,[3]; [9],0.05 µg/mL
same,MIC of intraconazole,[4]; [5],> 100 µg/mL
same,effect of combined use,[4]; [12],strong synergistic effects
same,fractional inhibitory concentration index,[4]; [12],at most 0.2
same,antifungal activities of itraconazole in the presence of a low concentration of BE-31405,"[4]; low concentration of BE-31405, ATCC 90028 (Table 5)",substantially enhanced
same,MIC of intraconazole,[4]; [7],1.56 µg/mL
same,MIC of intraconazole,[4]; [11],0.2 µg/mL
same,MIC of intraconazole,[4]; [8],0.2 µg/mL
same,MIC of intraconazole,[4]; [9],0.1 µg/mL
Clc1ccc(COC(Cn2ccnc2)c2ccc(Cl)cc2Cl)c(Cl)c1 (stereo not drawn) [miconazole],MIC of miconazole,[1]; BE-31405 0.0 μg/ml (absence),12.5 µg/mL
same,antifungal activities of miconazole in the presence of a low concentration of BE-31405,[1]; in the presence of a low concentration of BE-31405,substantially enhanced
same,fractional inhibitory concentration index,[1]; miconazole combined with BE-31405,0.2
same,effect of combined use,"[1]; miconazole combined with BE-31405, judged from fractional inhibitory concentration index",synergistic effect
same,MIC of miconazole,[1]; with BE-31405 0.1 μg/ml,1.56 µg/mL
same,MIC of miconazole,[1]; with BE-31405 0.2 μg/ml,0.78 µg/mL
same,MIC of miconazole,[1]; with BE-31405 0.39 μg/ml,0.39 µg/mL
same,MIC of miconazole,[1]; with BE-31405 0.78 μg/ml,0.05 µg/mL
